Laboratory results reported in the kinase profiling compilation of Christmann-Franck et al. (2016).

Assays:
Assay in all cases: KINOMEscan competition binding
Conditions in all cases: compound 10.0 µM
PRKD1 (human) = PRKD1 (human) (UniProt Q15139)
RPS6KA1 KD1 (human) = RPS6KA1 KD1 (human) (UniProt Q15418)
CDK7 (human) = CDK7 (human) (UniProt P50613)
EPHA8 (human) = EPHA8 (human) (UniProt P29322)
MAP2K5 (human) = MAP2K5 (human) (UniProt Q13163)
GAK (human) = GAK (human) (UniProt O14976)
MAPK10 (human) = MAPK10 (human) (UniProt P53779)
TXK (human) = TXK (human) (UniProt P42681)
PDGFRB (human) = PDGFRB (human) (UniProt P09619)
CIT (human) = CIT (human) (UniProt O14578)
GRK1 (human) = GRK1 (human) (UniProt Q15835)
CDK4 CCND3 (human) = CDK4 CCND3 (human) (UniProt P11802+P30281)
SIK2 (human) = SIK2 (human) (UniProt Q9H0K1)
FLT3 (human) = FLT3 (human) (UniProt P36888)
NEK5 (human) = NEK5 (human) (UniProt Q6P3R8)
SRPK1 (human) = SRPK1 (human) (UniProt Q96SB4)
AKT2 (human) = AKT2 (human) (UniProt P31751)
MATK (human) = MATK (human) (UniProt P42679)
MAK (human) = MAK (human) (UniProt P20794)
EPHB2 (human) = EPHB2 (human) (UniProt P29323)
CLK4 (human) = CLK4 (human) (UniProt Q9HAZ1)
BRSK1 (human) = BRSK1 (human) (UniProt Q8TDC3)
[1] = tested on: FLT3 (human), P36888 [N841I]
MAP2K1 (human) = MAP2K1 (human) (UniProt Q02750)
CDK3 (human) = CDK3 (human) (UniProt Q00526)
RPS6KA6 KD1 (human) = RPS6KA6 KD1 (human) (UniProt Q9UK32)
STK16 (human) = STK16 (human) (UniProt O75716)
CSNK1G3 (human) = CSNK1G3 (human) (UniProt Q9Y6M4)
FLT1 (human) = FLT1 (human) (UniProt P17948)
PRKAA1 (human) = PRKAA1 (human) (UniProt Q13131)
MAP3K4 (human) = MAP3K4 (human) (UniProt Q9Y6R4)
CSNK2A2 (human) = CSNK2A2 (human) (UniProt P19784)
MAPK15 (human) = MAPK15 (human) (UniProt Q8TD08)
MAPK3 (human) = MAPK3 (human) (UniProt P27361)
PIM3 (human) = PIM3 (human) (UniProt Q86V86)
[2] = tested on: EGFR (human), P00533 [752-759 del]
RIPK1 (human) = RIPK1 (human) (UniProt Q13546)
TLK2 (human) = TLK2 (human) (UniProt Q86UE8)
MAPKAPK5 (human) = MAPKAPK5 (human) (UniProt Q8IW41)
INSR (human) = INSR (human) (UniProt P06213)
[3] = tested on: KIT (human), P10721 [D816H]

Sequence of FLT1 (human) (P17948 whole entry, looked up): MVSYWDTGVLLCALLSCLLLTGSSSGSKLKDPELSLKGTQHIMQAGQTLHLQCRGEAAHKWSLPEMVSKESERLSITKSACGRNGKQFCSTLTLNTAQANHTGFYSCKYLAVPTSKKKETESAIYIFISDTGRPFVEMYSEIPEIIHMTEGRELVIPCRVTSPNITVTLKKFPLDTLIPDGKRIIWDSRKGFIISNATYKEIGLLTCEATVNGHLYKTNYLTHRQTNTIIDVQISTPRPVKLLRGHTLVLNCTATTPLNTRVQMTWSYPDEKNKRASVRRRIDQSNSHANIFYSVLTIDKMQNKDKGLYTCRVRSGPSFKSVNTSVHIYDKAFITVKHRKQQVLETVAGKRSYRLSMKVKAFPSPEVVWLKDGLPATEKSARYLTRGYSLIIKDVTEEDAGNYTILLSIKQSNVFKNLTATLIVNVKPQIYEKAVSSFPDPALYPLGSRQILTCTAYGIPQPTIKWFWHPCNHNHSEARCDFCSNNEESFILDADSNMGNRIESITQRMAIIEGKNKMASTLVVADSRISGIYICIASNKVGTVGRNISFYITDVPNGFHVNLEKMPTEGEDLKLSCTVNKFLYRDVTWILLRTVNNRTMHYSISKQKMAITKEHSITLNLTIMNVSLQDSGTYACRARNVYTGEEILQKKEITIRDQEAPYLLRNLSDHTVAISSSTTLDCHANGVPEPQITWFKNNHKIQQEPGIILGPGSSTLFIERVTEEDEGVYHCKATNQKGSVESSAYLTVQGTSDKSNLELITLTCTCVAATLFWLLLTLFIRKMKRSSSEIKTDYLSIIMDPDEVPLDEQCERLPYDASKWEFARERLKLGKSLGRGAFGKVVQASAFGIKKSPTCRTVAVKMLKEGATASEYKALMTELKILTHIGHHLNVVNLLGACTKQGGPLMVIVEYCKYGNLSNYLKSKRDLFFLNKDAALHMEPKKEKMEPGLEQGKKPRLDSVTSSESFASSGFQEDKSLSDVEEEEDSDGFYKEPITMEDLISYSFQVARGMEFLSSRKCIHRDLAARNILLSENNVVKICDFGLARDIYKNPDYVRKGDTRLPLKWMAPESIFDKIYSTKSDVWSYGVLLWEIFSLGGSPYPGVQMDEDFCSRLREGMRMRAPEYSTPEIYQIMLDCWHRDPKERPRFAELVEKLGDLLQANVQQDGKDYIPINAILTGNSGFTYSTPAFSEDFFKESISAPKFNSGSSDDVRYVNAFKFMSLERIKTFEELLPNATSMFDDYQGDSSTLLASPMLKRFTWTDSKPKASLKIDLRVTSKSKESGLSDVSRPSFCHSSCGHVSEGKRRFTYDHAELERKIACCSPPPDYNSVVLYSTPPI
Sequence of EPHB2 (human) (P29323 whole entry, looked up): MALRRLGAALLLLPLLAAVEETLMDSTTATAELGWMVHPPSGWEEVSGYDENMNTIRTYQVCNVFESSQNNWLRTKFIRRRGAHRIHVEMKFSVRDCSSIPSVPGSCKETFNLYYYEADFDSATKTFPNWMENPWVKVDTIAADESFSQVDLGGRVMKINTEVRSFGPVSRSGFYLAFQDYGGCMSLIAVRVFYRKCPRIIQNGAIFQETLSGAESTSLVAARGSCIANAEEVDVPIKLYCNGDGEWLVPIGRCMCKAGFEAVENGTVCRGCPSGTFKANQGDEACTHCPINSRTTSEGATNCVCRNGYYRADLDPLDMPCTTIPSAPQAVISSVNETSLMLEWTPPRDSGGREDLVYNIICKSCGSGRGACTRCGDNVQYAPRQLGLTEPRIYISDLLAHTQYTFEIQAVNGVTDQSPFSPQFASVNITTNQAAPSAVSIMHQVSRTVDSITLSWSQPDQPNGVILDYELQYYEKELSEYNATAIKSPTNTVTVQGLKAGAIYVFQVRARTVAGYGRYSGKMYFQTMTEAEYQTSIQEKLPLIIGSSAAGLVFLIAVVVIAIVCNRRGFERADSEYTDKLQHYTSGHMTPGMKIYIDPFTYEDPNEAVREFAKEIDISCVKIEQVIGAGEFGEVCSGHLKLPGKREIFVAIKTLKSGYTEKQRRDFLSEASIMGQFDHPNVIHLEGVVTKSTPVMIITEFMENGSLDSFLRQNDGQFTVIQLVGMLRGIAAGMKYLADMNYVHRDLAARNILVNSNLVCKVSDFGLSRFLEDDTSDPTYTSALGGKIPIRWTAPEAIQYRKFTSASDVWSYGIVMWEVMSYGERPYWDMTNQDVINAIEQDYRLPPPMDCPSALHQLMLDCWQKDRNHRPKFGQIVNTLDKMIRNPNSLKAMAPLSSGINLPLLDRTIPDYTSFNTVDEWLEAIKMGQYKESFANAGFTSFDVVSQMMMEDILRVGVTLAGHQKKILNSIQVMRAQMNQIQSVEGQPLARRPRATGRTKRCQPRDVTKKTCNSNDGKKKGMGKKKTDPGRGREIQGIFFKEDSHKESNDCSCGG
Sequence of MAPK10 (human) (P53779 whole entry, looked up): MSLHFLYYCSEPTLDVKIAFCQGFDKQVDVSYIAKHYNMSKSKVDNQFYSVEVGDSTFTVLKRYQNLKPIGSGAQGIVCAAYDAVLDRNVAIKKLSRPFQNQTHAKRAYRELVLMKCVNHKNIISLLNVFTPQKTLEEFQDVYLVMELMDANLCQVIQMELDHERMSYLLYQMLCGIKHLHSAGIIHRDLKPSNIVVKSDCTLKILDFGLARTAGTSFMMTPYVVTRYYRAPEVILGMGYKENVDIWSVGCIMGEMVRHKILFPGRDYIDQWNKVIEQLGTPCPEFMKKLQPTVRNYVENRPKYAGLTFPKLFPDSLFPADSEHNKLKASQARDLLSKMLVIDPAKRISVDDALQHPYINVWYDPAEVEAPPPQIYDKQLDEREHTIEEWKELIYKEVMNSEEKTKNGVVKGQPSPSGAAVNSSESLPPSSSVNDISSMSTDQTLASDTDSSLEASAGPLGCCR
Sequence of PRKAA1 (human) (Q13131 whole entry, looked up): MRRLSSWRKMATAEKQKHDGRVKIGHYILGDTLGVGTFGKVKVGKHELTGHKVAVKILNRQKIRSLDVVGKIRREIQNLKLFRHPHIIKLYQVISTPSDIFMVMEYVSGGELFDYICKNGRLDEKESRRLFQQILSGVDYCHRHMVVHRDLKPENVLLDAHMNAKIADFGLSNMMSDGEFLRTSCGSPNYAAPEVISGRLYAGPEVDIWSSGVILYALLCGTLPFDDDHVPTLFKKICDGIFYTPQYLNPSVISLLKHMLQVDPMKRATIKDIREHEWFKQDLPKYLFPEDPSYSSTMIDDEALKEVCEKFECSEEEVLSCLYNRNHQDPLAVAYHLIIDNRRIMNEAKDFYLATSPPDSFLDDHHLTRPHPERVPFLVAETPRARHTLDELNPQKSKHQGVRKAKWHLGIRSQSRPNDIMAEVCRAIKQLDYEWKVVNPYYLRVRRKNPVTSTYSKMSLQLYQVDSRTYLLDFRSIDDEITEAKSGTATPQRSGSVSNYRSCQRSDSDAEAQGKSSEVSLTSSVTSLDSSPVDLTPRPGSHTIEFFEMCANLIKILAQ
Sequence of AKT2 (human) (P31751 whole entry, looked up): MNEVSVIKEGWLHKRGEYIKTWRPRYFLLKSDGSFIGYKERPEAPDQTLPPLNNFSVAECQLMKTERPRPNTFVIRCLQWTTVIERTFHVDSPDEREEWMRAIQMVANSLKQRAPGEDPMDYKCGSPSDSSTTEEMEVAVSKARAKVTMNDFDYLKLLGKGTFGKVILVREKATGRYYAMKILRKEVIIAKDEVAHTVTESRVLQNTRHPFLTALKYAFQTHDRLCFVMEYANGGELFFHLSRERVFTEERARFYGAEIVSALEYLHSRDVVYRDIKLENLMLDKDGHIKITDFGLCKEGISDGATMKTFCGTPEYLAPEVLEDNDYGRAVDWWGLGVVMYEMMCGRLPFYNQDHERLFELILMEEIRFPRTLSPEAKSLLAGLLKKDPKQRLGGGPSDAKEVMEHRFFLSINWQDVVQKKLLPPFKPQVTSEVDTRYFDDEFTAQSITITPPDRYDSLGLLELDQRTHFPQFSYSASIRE
Sequence of SRPK1 (human) (Q96SB4 whole entry, looked up): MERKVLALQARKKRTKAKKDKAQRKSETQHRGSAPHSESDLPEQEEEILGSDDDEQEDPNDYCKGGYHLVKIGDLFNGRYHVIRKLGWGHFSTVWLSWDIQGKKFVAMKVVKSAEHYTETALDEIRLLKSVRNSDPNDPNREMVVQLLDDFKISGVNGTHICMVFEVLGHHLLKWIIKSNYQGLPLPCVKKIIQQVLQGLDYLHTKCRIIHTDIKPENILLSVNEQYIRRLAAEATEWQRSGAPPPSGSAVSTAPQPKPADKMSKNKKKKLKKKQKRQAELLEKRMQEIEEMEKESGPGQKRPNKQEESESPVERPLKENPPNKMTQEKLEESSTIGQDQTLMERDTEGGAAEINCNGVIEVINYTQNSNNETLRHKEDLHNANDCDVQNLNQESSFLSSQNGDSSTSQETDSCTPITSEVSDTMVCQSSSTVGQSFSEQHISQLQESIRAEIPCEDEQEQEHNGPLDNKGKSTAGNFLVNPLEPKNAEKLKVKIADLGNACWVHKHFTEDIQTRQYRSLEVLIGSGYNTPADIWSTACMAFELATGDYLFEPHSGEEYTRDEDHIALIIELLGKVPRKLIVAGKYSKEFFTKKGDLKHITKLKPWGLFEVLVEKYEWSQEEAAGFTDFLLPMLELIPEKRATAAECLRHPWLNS
Sequence of MAPKAPK5 (human) (Q8IW41 whole entry, looked up): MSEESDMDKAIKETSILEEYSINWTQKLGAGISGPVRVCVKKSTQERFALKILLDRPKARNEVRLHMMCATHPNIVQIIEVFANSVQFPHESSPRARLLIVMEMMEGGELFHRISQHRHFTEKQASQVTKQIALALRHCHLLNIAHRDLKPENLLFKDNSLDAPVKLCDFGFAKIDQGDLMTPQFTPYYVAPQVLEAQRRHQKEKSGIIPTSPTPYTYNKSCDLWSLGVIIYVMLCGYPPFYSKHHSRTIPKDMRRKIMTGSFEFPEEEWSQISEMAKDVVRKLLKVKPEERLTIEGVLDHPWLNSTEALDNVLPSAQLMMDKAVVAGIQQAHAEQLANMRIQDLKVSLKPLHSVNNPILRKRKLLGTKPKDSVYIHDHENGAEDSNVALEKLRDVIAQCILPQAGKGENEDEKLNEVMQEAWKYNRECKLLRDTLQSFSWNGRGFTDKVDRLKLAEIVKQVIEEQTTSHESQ

`CCC(=O)N1CCN(c2ccc(-n3c(=O)ccc4cnc5ccc(-c6cnc7ccccc7c6)cc5c43)cc2C(F)(F)F)CC1` gave a kinase still bound, per cent of control (PRKD1 (human)) of 99%, a kinase still bound, per cent of control (RPS6KA1 KD1 (human)) of 68% and a per cent of control (CDK7 (human)) of 57%. For the same molecule, the kinase still bound, per cent of control (EPHA8 (human)) was 71%, the kinase still bound, per cent of control (MAP2K5 (human)) was 100% and the kinase still bound, per cent of control (GAK (human)) was 57%. For the same molecule, the kinase still bound, per cent of control (MAPK10 (human)) was 31%, the kinase still bound, per cent of control (TXK (human)) was 54% and the kinase still bound, per cent of control (PDGFRB (human)) was 24%. For the same molecule, the kinase still bound, per cent of control (CIT (human)) was 59%, the kinase still bound, per cent of control (GRK1 (human)) was 99% and the per cent of control (CDK4 CCND3 (human)) was 87%. For the same molecule, the kinase still bound, per cent of control (SIK2 (human)) was 23%, the kinase still bound, per cent of control (FLT3 (human)) was 16% and the kinase still bound, per cent of control (NEK5 (human)) was 5.8%. The kinase still bound, per cent of control (SRPK1 (human)) was 100%, the kinase still bound, per cent of control (AKT2 (human)) was 100% and the kinase still bound, per cent of control (MATK (human)) was 97%. It also gave a kinase still bound, per cent of control (MAK (human)) of 68%, a kinase still bound, per cent of control (EPHB2 (human)) of 100% and a kinase still bound, per cent of control (CLK4 (human)) of 49%. The kinase still bound, per cent of control (BRSK1 (human)) was 78%, the kinase still bound, per cent of control [1] was 8.8% and the kinase still bound, per cent of control (MAP2K1 (human)) was 100%. It also gave a per cent of control (CDK3 (human)) of 100%, a kinase still bound, per cent of control (RPS6KA6 KD1 (human)) of 66% and a kinase still bound, per cent of control (STK16 (human)) of 18%. For the same molecule, the kinase still bound, per cent of control (CSNK1G3 (human)) was 100%, the kinase still bound, per cent of control (FLT1 (human)) was 79% and the kinase still bound, per cent of control (PRKAA1 (human)) was 91%. For the same molecule, the kinase still bound, per cent of control (MAP3K4 (human)) was 47%, the kinase still bound, per cent of control (CSNK2A2 (human)) was 11% and the kinase still bound, per cent of control (MAPK15 (human)) was 79%. The kinase still bound, per cent of control (MAPK3 (human)) was 91%, the kinase still bound, per cent of control (PIM3 (human)) was 96% and the kinase still bound, per cent of control [2] was 84%. It also gave a kinase still bound, per cent of control (RIPK1 (human)) of 1.9%, a kinase still bound, per cent of control (TLK2 (human)) of 100% and a kinase still bound, per cent of control (MAPKAPK5 (human)) of 100%. It also gave a kinase still bound, per cent of control (INSR (human)) of 7.6%.

With `CC(C)n1nc(-c2cc3cc(O)ccc3[nH]2)c2c(N)ncnc21` the kinase still bound, per cent of control (PRKD1 (human)) was 100%, the kinase still bound, per cent of control [3] was 16% and the kinase still bound, per cent of control (RPS6KA1 KD1 (human)) was 32%. It also gave a per cent of control (CDK7 (human)) of 30%, a kinase still bound, per cent of control (EPHA8 (human)) of 1.2% and a kinase still bound, per cent of control (MAP2K5 (human)) of 0.35%. The kinase still bound, per cent of control (GAK (human)) was 6.2%, the kinase still bound, per cent of control (MAPK10 (human)) was 72% and the kinase still bound, per cent of control (TXK (human)) was 3%. For the same molecule, the kinase still bound, per cent of control (PDGFRB (human)) was 0%, the kinase still bound, per cent of control (CIT (human)) was 66% and the kinase still bound, per cent of control (GRK1 (human)) was 16%. The per cent of control (CDK4 CCND3 (human)) was 57%, the kinase still bound, per cent of control (SIK2 (human)) was 9.4% and the kinase still bound, per cent of control (FLT3 (human)) was 40%. The kinase still bound, per cent of control (NEK5 (human)) was 86%, the kinase still bound, per cent of control (SRPK1 (human)) was 100% and the kinase still bound, per cent of control (AKT2 (human)) was 100%. For the same molecule, the kinase still bound, per cent of control (MATK (human)) was 60%, the kinase still bound, per cent of control (MAK (human)) was 99% and the kinase still bound, per cent of control (EPHB2 (human)) was 32%. It also gave a kinase still bound, per cent of control (CLK4 (human)) of 9.7%, a kinase still bound, per cent of control (BRSK1 (human)) of 1.6% and a kinase still bound, per cent of control [1] of 5%. It also gave a kinase still bound, per cent of control (MAP2K1 (human)) of 0.25%, a per cent of control (CDK3 (human)) of 100% and a kinase still bound, per cent of control (RPS6KA6 KD1 (human)) of 4.6%. It also gave a kinase still bound, per cent of control (STK16 (human)) of 34%, a kinase still bound, per cent of control (FLT1 (human)) of 25% and a kinase still bound, per cent of control (PRKAA1 (human)) of 43%. It also gave a kinase still bound, per cent of control (MAP3K4 (human)) of 85%, a kinase still bound, per cent of control (CSNK2A2 (human)) of 3.5% and a kinase still bound, per cent of control (MAPK15 (human)) of 54%. For the same molecule, the kinase still bound, per cent of control (MAPK3 (human)) was 100%, the kinase still bound, per cent of control (PIM3 (human)) was 31% and the kinase still bound, per cent of control (RIPK1 (human)) was 100%. The kinase still bound, per cent of control (TLK2 (human)) was 79%, the kinase still bound, per cent of control (MAPKAPK5 (human)) was 86% and the kinase still bound, per cent of control (INSR (human)) was 100%.

With `COC(=O)Nc1ccc(-c2nc(N3CCOCC3)c3cnn(C4CCN(C(=O)OC)CC4)c3n2)cc1` the kinase still bound, per cent of control (PRKD1 (human)) was 95%, the kinase still bound, per cent of control [3] was 75% and the kinase still bound, per cent of control (RPS6KA1 KD1 (human)) was 100%. It also gave a per cent of control (CDK7 (human)) of 67%, a kinase still bound, per cent of control (EPHA8 (human)) of 97% and a kinase still bound, per cent of control (MAP2K5 (human)) of 100%. It also gave a kinase still bound, per cent of control (GAK (human)) of 94%, a kinase still bound, per cent of control (MAPK10 (human)) of 100% and a kinase still bound, per cent of control (TXK (human)) of 92%. It also gave a kinase still bound, per cent of control (PDGFRB (human)) of 100%, a kinase still bound, per cent of control (CIT (human)) of 98% and a kinase still bound, per cent of control (GRK1 (human)) of 100%. For the same molecule, the per cent of control (CDK4 CCND3 (human)) was 100%, the kinase still bound, per cent of control (SIK2 (human)) was 100% and the kinase still bound, per cent of control (FLT3 (human)) was 100%. For the same molecule, the kinase still bound, per cent of control (NEK5 (human)) was 100%, the kinase still bound, per cent of control (SRPK1 (human)) was 100% and the kinase still bound, per cent of control (AKT2 (human)) was 100%. It also gave a kinase still bound, per cent of control (MATK (human)) of 100%, a kinase still bound, per cent of control (MAK (human)) of 100% and a kinase still bound, per cent of control (EPHB2 (human)) of 100%. For the same molecule, the kinase still bound, per cent of control (CLK4 (human)) was 94%, the kinase still bound, per cent of control (BRSK1 (human)) was 95% and the kinase still bound, per cent of control [1] was 78%. For the same molecule, the kinase still bound, per cent of control (MAP2K1 (human)) was 100%, the per cent of control (CDK3 (human)) was 100% and the kinase still bound, per cent of control (RPS6KA6 KD1 (human)) was 86%. For the same molecule, the kinase still bound, per cent of control (STK16 (human)) was 77%, the kinase still bound, per cent of control (CSNK1G3 (human)) was 100% and the kinase still bound, per cent of control (FLT1 (human)) was 100%. The kinase still bound, per cent of control (PRKAA1 (human)) was 100%, the kinase still bound, per cent of control (MAP3K4 (human)) was 100% and the kinase still bound, per cent of control (CSNK2A2 (human)) was 83%. The kinase still bound, per cent of control (MAPK15 (human)) was 100%, the kinase still bound, per cent of control (MAPK3 (human)) was 99% and the kinase still bound, per cent of control (PIM3 (human)) was 100%. It also gave a kinase still bound, per cent of control [2] of 100%, a kinase still bound, per cent of control (RIPK1 (human)) of 100% and a kinase still bound, per cent of control (TLK2 (human)) of 96%. The kinase still bound, per cent of control (MAPKAPK5 (human)) was 100% and the kinase still bound, per cent of control (INSR (human)) was 72%.
